Data set [1] addresses T1, MSUT2 (Homo sapiens (Human), UniProt Q6PJT7). The data set is described as follows: primary tau-inclusion neuronal assay (MSUT2 inhibitor activity). In kind it is cell-based. The following applies: for IC50: dose-dependent activity, primary tau-inclusion neuronal assay; for biological activity in the in vitro assay (SAR summary in words): preliminary SAR summary. The method, then: A variety of analogs in which the tricycle scaffold was modified were prepared and evaluated for their MSUT2 inhibitor activity.
The N-substitution pattern was also explored. The dose-dependent activity of these compounds was determined using a primary tau-inclusion neuronal assay and is summarized in Table 3 below.

Data set [2] addresses T1, MSUT2. Kind of data set: NMR Saturation Transfer Difference studies. In kind it is binding. The note with it: 15 μM MSUT2 protein; down-field shift of ligand signals at 4.10 and 3.05 ppm; Kd could not be calculated. The method, then: The concentration of MSUT2 protein is 15 μM. Ratio of ligand to protein is indicated to the left of individual spectra.
Data set [3] addresses T1, MSUT2. Kind of data set: photo-affinity labelling experiments (PAL probe BL-1138, TAMRA fluorescence SDS-PAGE). Format: binding. The note with it: for ligand-protein binding mode (decrease in tagging density with competitor): used as competitor against PAL probe BL-1138, full MSUT2 and GST-MSUT2 construct. From the text:
FIG. 7A and FIG. 7B show representative data from photo-affinity labelling experiments performed using UWK-5 (lanes 1-4) and BL-1122 (lanes 5-8) as competitors. Gel visualized by fluorescence imaging using TAMRA (excitation/emission maxima 546/579 nm).

Data set [4] concerns the target MSUT2/poly(A)RNA binding interaction (Homo sapiens (Human), UniProt Q6PJT7). The data set is described as follows: high-throughput AlphaScreen, dose-response in vitro. In kind it is biochemical. The note with it: AlphaScreen dose-response profile in vitro. An excerpt:
MSUT2 has been identified as a therapeutic target for the treatment of tauopathy, and MSUT2 KO has decreased the accumulation of pathological tau and reduced the formation of NFTs in tau-transgenic PS19 mice models. Screening of >100,000 compounds in an AlphaScreen and an orthogonal FP-HTS assay identified a promising thiochromenathiazole-based inhibitor of the MSUT2/poly(A)RNA binding interaction. Preliminary SAR experiments have been conducted to confirm biological activity and to identify novel biologically active compounds of interest. […] Due to challenges in functionalizing an electron-deficient tricycle scaffold, the synthesis of analogues will coincide with an effort towards the optimization of synthetic conditions.

T1 sequence (Q6PJT7 whole entry, species assumed): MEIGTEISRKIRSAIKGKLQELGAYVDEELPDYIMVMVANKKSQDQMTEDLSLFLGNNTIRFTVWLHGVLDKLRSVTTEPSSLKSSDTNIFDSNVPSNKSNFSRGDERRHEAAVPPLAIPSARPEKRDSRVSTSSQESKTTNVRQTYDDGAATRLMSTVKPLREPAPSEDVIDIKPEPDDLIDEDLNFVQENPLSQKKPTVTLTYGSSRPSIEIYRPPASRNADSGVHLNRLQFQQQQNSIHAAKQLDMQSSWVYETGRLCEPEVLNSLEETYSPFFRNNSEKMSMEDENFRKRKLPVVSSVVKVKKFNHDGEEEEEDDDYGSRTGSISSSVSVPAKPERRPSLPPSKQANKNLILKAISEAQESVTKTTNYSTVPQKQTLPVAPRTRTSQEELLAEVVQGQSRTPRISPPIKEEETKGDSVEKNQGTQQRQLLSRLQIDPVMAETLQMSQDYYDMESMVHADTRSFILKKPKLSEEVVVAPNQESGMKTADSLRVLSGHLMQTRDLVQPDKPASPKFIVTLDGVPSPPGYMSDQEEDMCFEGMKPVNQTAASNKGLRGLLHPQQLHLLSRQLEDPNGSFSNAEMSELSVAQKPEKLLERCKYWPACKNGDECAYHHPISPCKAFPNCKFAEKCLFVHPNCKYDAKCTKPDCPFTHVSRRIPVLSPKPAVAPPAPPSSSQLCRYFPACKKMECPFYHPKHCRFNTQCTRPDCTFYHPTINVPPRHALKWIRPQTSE
Sequence of MSUT2/poly(A)RNA binding interaction (Q6PJT7 whole entry, species assumed): as above

As to `O=C(NCCS(=O)(=O)O)Nc1nc2c(s1)CSc1ccccc1-2` [BL-1122], on MSUT2 [1], 3.26 µM corresponded to half-maximal inhibition (IC50) and the “biological activity in the in vitro assay (SAR summary in words)” value (from here on “biological activity”) is reported as “favorable activity”. On MSUT2 [2], the “binding affinity of ligand for MSUT2 protein” value is listed as “tight binding affinity”. For the same molecule, on MSUT2 [3], the “ligand-protein binding mode (decrease in tagging density with competitor)” value is recorded as “competitive”.
Regarding `CCS(=O)(=O)c1ccc(C(=O)Nc2nc(-c3ccccc3)cs2)cc1` [BL-1057], on MSUT2 [1], the IC50 was above 128 µM and the “biological activity” value is recorded as “eliminates activity”.
`O=C(Nc1ccccc1)Nc1nc2c(s1)CSc1ccccc1-2` [BL-1131] registered an IC50 on MSUT2 [1] of 32 µM.
The molecule `C#Cc1ccc(CNc2nc3c(s2)CSc2ccccc2-3)cc1` [BL-1092] displayed an IC50 on MSUT2 [1] of 11.7 µM. This IC50 is about 2.7-fold lower than that of the molecule before.
Take `Nc1nc2c(s1)CSc1cc(F)ccc1-2` [BL-0981]: the half-maximal inhibitory concentration (IC50) against MSUT2 [1] came out at 22.3 µM.
Same read-out and setting: the value for `CCS(=O)(=O)c1ccc(CNc2nc3c(s2)CSc2ccccc2-3)cc1` [BL-1126] was 13.4 µM.
With `C=C(Cc1nc2c(s1)CSc1ccccc1-2)c1ccc(S(=O)(=O)CC)cc1` [UWK-5], the IC50 on MSUT2 [1] was determined as 0.586 µM; in data set [4], 1.1 µM. The “ligand-protein binding mode (decrease in tagging density with competitor)” value at MSUT2 [3] is given as “competitive”.
Take `c1ccc(CNc2nc3c(s2)CSc2ccccc2-3)cc1` [BL-1133]: at MSUT2 [1], it took 7.6 µM to reach half-maximal inhibition (IC50) and the “biological activity” value was “widely tolerated”.
At MSUT2 [1], `Fc1ccc(CNc2nc3c(s2)CSc2ccccc2-3)cc1` [BL-1023] had an IC50 of 16.9 µM.
On to `Nc1nc2c(s1)CCc1ccccc1-2` [BL-0960], for which, at MSUT2 [1], the IC50 was above 100 µM and the “biological activity” value was “loss of biological activity”.
At MSUT2 [1], `CCN(CC)c1ccc(CNc2nc3c(s2)CSc2ccccc2-3)cc1` [BL-1041] showed a half-inhibitory concentration (IC50) of 5.67 µM.
For the molecule `CCS(=O)(=O)c1ccc(C(=O)Nc2nc3c(s2)COc2ccccc2-3)cc1` [BL-0962], the IC50 on MSUT2 [1] was above 100 µM.
On to `Nc1nc2c(s1)CSCC2` [BL-1018], for which, on MSUT2 [1], the IC50 is above 128 µM and the “biological activity” value is “eliminates activity”.
On to `C#CCNC(=O)Nc1nc2c(s1)CSc1ccccc1-2` [BL-1084], for which inhibition against MSUT2 [1] was half-maximal at 23.2 µM (IC50).
For the molecule `Nc1nc(-c2ccccc2)cs1` [BL-1055], on MSUT2 [1], the half-maximal inhibitory concentration (IC50) is above 128 µM and the “biological activity” value is given as “eliminates activity”.
For `Cc1ccc(CNc2nc3c(s2)CSc2ccccc2-3)s1` [BL-1132], at MSUT2 [1], the 50% inhibitory concentration (IC50) stood at 7.73 µM and the “biological activity” value is reported as “widely tolerated”.
`Nc1nc2c(s1)CSc1ncccc1-2` [BL-1047] gave an IC50 against MSUT2 [1] of 11 µM.
In the case of `CC(C)(C)OC(=O)NCC(=O)Nc1nc2c(s1)CSc1ccccc1-2` [BL-1045], on MSUT2 [1], the half-maximal inhibitory concentration (IC50) came out at 45.1 µM. This IC50 lies about 4.1-fold higher than the previous one.
For `CC1(C)Sc2ccccc2-c2nc(N)sc21` [BL-1124], the IC50 at MSUT2 [1] was found to be 51.7 µM.
As to `Fc1ccc(CNc2nc3c(s2)CCc2ccccc2-3)cc1` [BL-1051], the IC50 on MSUT2 [1] was 21.8 µM.
Regarding `Nc1nc2c(s1)CSc1ccc(F)cc1-2` [BL-0980], at MSUT2 [1], the half-inhibitory concentration (IC50) came to 22.9 µM.
Turning to `NCC(=O)Nc1nc2c(s1)CSc1ccccc1-2` [BL-1046], the IC50 against MSUT2 [1] came to 23 µM.
In the case of `CCS(=O)(=O)c1ccc(C(=O)Nc2nc3c(s2)CCc2ccccc2-3)cc1` [BL-0963], the IC50 against MSUT2 [1] worked out at 45.1 µM.
In the case of `C#CCCNC(=O)Nc1nc2c(s1)CSc1ccccc1-2` [BL-1085], on MSUT2 [1], the half-maximal inhibitory concentration (IC50) worked out at 12.2 µM and the “biological activity” value is reported as “favorable activity”.
`Nc1nc2c(s1)CSc1c(F)cc(F)cc1-2` [BL-1017] had an IC50 at MSUT2 [1] of 60.9 µM.
`C#CCOC(=O)Nc1nc2c(s1)CSc1ccccc1-2` [BL-1088]: on MSUT2 [1], the midpoint of inhibition, the IC50, lay at 14.3 µM and the “biological activity” value is “favorable activity”.
With `Nc1nc2c(s1)COc1ccccc1-2` [BL-0959], on MSUT2 [1], half-maximal inhibition (IC50) required 3.91 µM and the “biological activity” value was “tolerated”.
For `O=S(=O)(Nc1nc2c(s1)CSc1ccccc1-2)c1ccccc1` [BL-1027], inhibition at MSUT2 [1] was half-maximal at 24.7 µM (IC50).
On to `CCS(=O)(=O)c1ccc(C(=O)Nc2nc3c(s2)CSCC3)cc1`, for which, on MSUT2 [1], the IC50 was determined as 109 µM and the “biological activity” value is recorded as “eliminates activity”.
Take `CC(C)Cc1ccc(CNc2nc3c(s2)CSc2ccccc2-3)cc1` [BL-1043]: the IC50 on MSUT2 [1] worked out at 20.2 µM.
Turning to `Fc1ccc(CNc2nc3c(s2)COc2ccccc2-3)cc1` [BL-1038], the IC50 at MSUT2 [1] was found to be 20.8 µM.
With `Nc1nc2c(s1)CCCc1ccccc1-2` [BL-0961], at MSUT2 [1], the concentration for half-maximal inhibition (IC50) is above 100 µM and the “biological activity” value is “loss of biological activity”.
At MSUT2 [1], `O=S(=O)(Nc1nc2c(s1)COc1ccccc1-2)c1ccccc1` [BL-1039] displayed an IC50 of 34.2 µM.
For the molecule `Nc1nc2c(s1)CS(=O)(=O)c1ccccc1-2` [BL-1075], at MSUT2 [1], the 50% inhibitory concentration (IC50) is above 128 µM and the “biological activity” value is recorded as “complete loss of biological activity”.
`Nc1nc2c(s1)CSc1c(F)cccc1-2` [BL-0979] had a 50% inhibitory concentration (IC50) on MSUT2 [1] of 23.6 µM.
On to `C#CCCC1(CCNC(=O)Nc2nc3c(s2)CSc2ccccc2-3)N=N1` [BL-1138], for which, on MSUT2 [3] (PAL probe clicked with TAMRA-biotin-azide), the “fluorescence tagging of MSUT2 protein” value is “target engagement”.
Regarding `CC(=O)N1N=C(c2ccccc2)SC12CCSc1ccccc12` (stereo not drawn) [BL-1123], the 50% inhibitory concentration (IC50) at MSUT2 [1] came out at 16 µM.
On the same count and under the same terms, the value for `Nc1nc2c(s1)CSc1ccccc1-2` [BL-0957] was 8.17 µM; that for `COC(=O)CC[C@H](NC(=O)OC(C)(C)C)C(=O)Nc1nc2c(s1)CSc1ccccc1-2` [BL-1081] was 12.3 µM.
Regarding `Nc1nc2c(s1)Cc1ccccc1-2` [BL-1125], the IC50 at MSUT2 [1] stood at 49.5 µM.

Values taken from patent US20240342139A1, “DEVELOPMENT AND OPTIMIZATION OF THIOCHROMENOTHIAZOLE-BASED MSUT2 INHIBITORS AS CANDIDATES FOR THE TREATMENT OF TAUOPATHY” (The United States Government As Represented By the …, priority 2023, published 2024).
